How the values were obtained:
Assay in all cases: GAL4-driven luciferase reporter assay in NIH3T3 cells
Assay type in all cases: cell-based
CfEcR-DEF mutant L223Y = CfEcR-DEF mutant L223Y (Choristoneura fumiferana, UniProt O77255, L506Y); conditions: for Emax: NIH3T3, 40 h, read-out: Rel Max FI
Experimental: (§1) This construct was prepared in the same way as in switch 1.1 above except wild-type CfEcR-DEF was replaced with mutant CfEcR-DEF comprising a ligand binding domain comprising a substitution mutation selected from Table 1 below.
(§2) DNAs were transfected into mouse NIH3T3 cells (ATCC) as follows. Standard methods for culture and maintenance of the cells were followed. Cells were harvested and plated 96-well plates at 2,500 cells per well, in 50 μL of growth medium containing 10% fetal bovine serum (FBS). Twenty-four hours later, the cells were treated with 35 μL of serum-free growth medium containing either dimethylsulfoxide (DMSO; control) or a DMSO solution of ligand. The cells were then transfected using Superfect (Qiagen Inc.) transfection reagent. For each well, 0.625 μL of Superfect was mixed with 14.2 μL of serum-free growth medium. 0.16 μg of reporter construct and 0.04 μg of each receptor construct were added to the transfection reagent mix. The contents of the transfection mix were mixed in a vortex mixer and let stand at room temperature for 30 minutes. At the end of incubation, 15 μL of transfection mix was added to the cells. The cells were maintained at 37° C. and 5% CO2 for 48 hours in 5% FBS.
(§3) Reporter Assays: Cells were harvested 40 hours after adding ligands. 125 μL of passive lysis buffer (part of Dual-Luciferase reporter assay system from Promega Corporation) were added to each well of the […] plate. The plates were placed on a rotary shaker for 15 minutes. Twenty μL of lysate were assayed. Luciferase activity was measured using Dual-Luciferase reporter assay system from Promega Corporation following the manufacturer's instructions. Fold induction (FI) activities were calculated by dividing relative light units (“RLU”) in ligand treated cells with RLU in DMSO treated cells (untreated control).

CfEcR-DEF mutant W238M = CfEcR-DEF mutant W238M (Choristoneura fumiferana, UniProt O77255, W521M); conditions: for Emax: NIH3T3, 40 h, read-out: Rel MaxFI
Experimental: as §1, §2, §3

CfEcR-DEF mutant M125G = CfEcR-DEF mutant M125G (Choristoneura fumiferana, UniProt O77255, M408G)
Experimental: as §1, §2, §3

CfEcR-DEF mutant L234W = CfEcR-DEF mutant L234W (Choristoneura fumiferana, UniProt O77255, L517W); conditions: for Emax: NIH3T3, 40 h, read-out: Rel Max FI
Experimental: as §1, §2, §3

CfEcR-DEF mutant M125N = CfEcR-DEF mutant M125N (Choristoneura fumiferana, UniProt O77255, M408N)
Experimental: as §1, §2, §3

CfEcR-DEF mutant M125V = CfEcR-DEF mutant M125V (Choristoneura fumiferana, UniProt O77255, M408V); conditions: for Emax: NIH3T3, 40 h, read-out: Rel Max FI
Experimental: as §1, §2, §3

CfEcR-DEF mutant F48K = CfEcR-DEF mutant F48K (Choristoneura fumiferana, UniProt O77255, F331K); conditions: for Emax: NIH3T3, 40 h, read-out: Rel Max FI
Experimental: as §1, §2, §3

CfEcR-DEF mutant F48R = CfEcR-DEF mutant F48R (Choristoneura fumiferana, UniProt O77255, F331R); conditions: for Emax: NIH3T3, 40 h, read-out: Rel Max FI
Experimental: as §1, §2, §3

CfEcR-DEF mutant T52Q = CfEcR-DEF mutant T52Q (Choristoneura fumiferana, UniProt O77255, T335Q); conditions: for Emax: NIH3T3, 40 h, read-out: Rel Max FI
Experimental: as §1, §2, §3

CfEcR-DEF mutant T52M = CfEcR-DEF mutant T52M (Choristoneura fumiferana, UniProt O77255, T335M); conditions: for Emax: NIH3T3, 40 h, read-out: Rel MaxFI
Experimental: as §1, §2, §3

CfEcR-DEF mutant L223K = CfEcR-DEF mutant L223K (Choristoneura fumiferana, UniProt O77255, L506K); conditions: for Emax: NIH3T3, 40 h, read-out: Rel Max FI
Experimental: as §1, §2, §3

CfEcR-DEF mutant M219A = CfEcR-DEF mutant M219A (Choristoneura fumiferana, UniProt O77255, M502A); conditions: for Emax: NIH3T3, 40 h, read-out: Rel Max FI
Experimental: as §1, §2, §3

CfEcR-DEF mutant L223R = CfEcR-DEF mutant L223R (Choristoneura fumiferana, UniProt O77255, L506R); conditions: for Emax: NIH3T3, 40 h, read-out: Rel Max FI
Experimental: as §1, §2, §3

CfEcR-DEF mutant M125S = CfEcR-DEF mutant M125S (Choristoneura fumiferana, UniProt O77255, M408S)
Experimental: as §1, §2, §3

CfEcR-DEF mutant L132E = CfEcR-DEF mutant L132E (Choristoneura fumiferana, UniProt O77255, L415E); conditions: for Emax: NIH3T3, 40 h, read-out: Rel Max FI
Experimental: as §1, §2, §3

CfEcR-DEF mutant M219K = CfEcR-DEF mutant M219K (Choristoneura fumiferana, UniProt O77255, M502K); conditions: for Emax: NIH3T3, 40 h, read-out: Rel Max FI
Experimental: as §1, §2, §3

CfEcR-DEF mutant T52W = CfEcR-DEF mutant T52W (Choristoneura fumiferana, UniProt O77255, T335W)
Experimental: as §1, §2, §3

CfEcR-DEF mutant W238L = CfEcR-DEF mutant W238L (Choristoneura fumiferana, UniProt O77255, W521L); conditions: for Emax: NIH3T3, 40 h, read-out: Rel Max FI
Experimental: as §1, §2, §3

CfEcR-DEF mutant T52G = CfEcR-DEF mutant T52G (Choristoneura fumiferana, UniProt O77255, T335G); conditions: for Emax: NIH3T3, 40 h, read-out: Rel Max FI
Experimental: as §1, §2, §3

CfEcR-DEF mutant M219Y = CfEcR-DEF mutant M219Y (Choristoneura fumiferana, UniProt O77255, M502Y); conditions: for Emax: NIH3T3, 40 h, read-out: Rel Max FI
Experimental: as §1, §2, §3

CfEcR-DEF mutant M125I = CfEcR-DEF mutant M125I (Choristoneura fumiferana, UniProt O77255, M408I); conditions: for Emax: NIH3T3, 40 h, read-out: Rel Max FI
Experimental: as §1, §2, §3

CfEcR-DEF mutant M219W = CfEcR-DEF mutant M219W (Choristoneura fumiferana, UniProt O77255, M502W); conditions: for Emax: NIH3T3, 40 h, read-out: Rel Max FI
Experimental: as §1, §2, §3

CfEcR-DEF mutant I51M = CfEcR-DEF mutant I51M (Choristoneura fumiferana, UniProt O77255, I334M); conditions: for Emax: NIH3T3, 40 h, read-out: Rel Max FI
Experimental: as §1, §2, §3

CfEcR-DEF mutant L234R = CfEcR-DEF mutant L234R (Choristoneura fumiferana, UniProt O77255, L517R); conditions: for Emax: NIH3T3, 40 h, read-out: Rel Max FI
Experimental: as §1, §2, §3

CfEcR-DEF mutant T52R = CfEcR-DEF mutant T52R (Choristoneura fumiferana, UniProt O77255, T335R); conditions: for Emax: NIH3T3, 40 h, read-out: Rel Max FI
Experimental: as §1, §2, §3

CfEcR-DEF mutant L223K, sequence (P28702 298-449): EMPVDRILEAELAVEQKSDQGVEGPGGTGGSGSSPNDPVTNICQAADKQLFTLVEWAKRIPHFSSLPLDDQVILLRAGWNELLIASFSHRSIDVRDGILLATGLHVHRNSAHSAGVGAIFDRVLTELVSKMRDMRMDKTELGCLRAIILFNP
CfEcR-DEF mutant L223K, sequence (O77255 entry or part of it L506K): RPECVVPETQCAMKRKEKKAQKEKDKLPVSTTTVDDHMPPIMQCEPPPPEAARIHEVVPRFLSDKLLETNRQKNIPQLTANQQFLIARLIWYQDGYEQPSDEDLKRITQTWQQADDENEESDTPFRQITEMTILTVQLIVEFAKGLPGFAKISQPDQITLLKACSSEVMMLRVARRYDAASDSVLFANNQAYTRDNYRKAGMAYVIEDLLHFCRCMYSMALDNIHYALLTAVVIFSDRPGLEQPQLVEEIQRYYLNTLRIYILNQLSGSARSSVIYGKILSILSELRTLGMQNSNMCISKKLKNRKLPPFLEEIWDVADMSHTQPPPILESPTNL
CfEcR-DEF mutant T52W, sequence (O77255 entry or part of it T335W): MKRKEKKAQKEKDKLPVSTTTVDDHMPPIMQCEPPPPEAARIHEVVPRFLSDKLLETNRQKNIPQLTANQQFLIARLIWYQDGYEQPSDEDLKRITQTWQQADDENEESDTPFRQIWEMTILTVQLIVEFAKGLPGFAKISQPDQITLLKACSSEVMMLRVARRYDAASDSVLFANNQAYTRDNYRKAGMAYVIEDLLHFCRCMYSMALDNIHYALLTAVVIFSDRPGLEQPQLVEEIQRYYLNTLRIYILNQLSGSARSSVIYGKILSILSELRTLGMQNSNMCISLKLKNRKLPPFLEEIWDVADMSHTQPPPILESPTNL
CfEcR-DEF mutant T52W, sequence (P28702 299-449, further chain): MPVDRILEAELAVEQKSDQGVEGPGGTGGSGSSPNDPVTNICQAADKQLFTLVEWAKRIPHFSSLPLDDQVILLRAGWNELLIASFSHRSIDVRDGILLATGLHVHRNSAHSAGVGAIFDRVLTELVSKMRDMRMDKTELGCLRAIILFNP
CfEcR-DEF mutant T52R, sequence (O77255 entry or part of it T335R): as the sequence (O77255 entry or part of it T335W) above, with W117R counted along it
CfEcR-DEF mutant T52R, sequence (P28702 299-449, further chain): as the sequence (P28702 299-449, further chain) above
CfEcR-DEF mutant M125I, sequence (O77255 entry or part of it M408I): as the sequence (O77255 entry or part of it L506K) above, with M202I, K300L counted along it
CfEcR-DEF mutant M125I, sequence (P28702 299-449, further chain): as the sequence (P28702 299-449, further chain) above
CfEcR-DEF mutant T52M, sequence (O77255 entry or part of it T335M): as the sequence (O77255 entry or part of it L506K) above, with T129M, K300L counted along it
CfEcR-DEF mutant T52M, sequence (P28702 298-449, further chain): as the sequence (P28702 298-449) above
CfEcR-DEF mutant F48R, sequence (O77255 entry or part of it F331R): as the sequence (O77255 entry or part of it L506K) above, with F125R, K300L counted along it
CfEcR-DEF mutant F48R, sequence (P28702 299-449, further chain): as the sequence (P28702 299-449, further chain) above
CfEcR-DEF mutant M219A, sequence (O77255 entry or part of it M502A): as the sequence (O77255 entry or part of it L506K) above, with M296A, K300L counted along it
CfEcR-DEF mutant M219A, sequence (P28702 299-449, further chain): as the sequence (P28702 299-449, further chain) above
CfEcR-DEF mutant L234R, sequence (O77255 entry or part of it L517R): as the sequence (O77255 entry or part of it L506K) above, with K300L, L311R counted along it
CfEcR-DEF mutant L234R, sequence (P28702 299-449, further chain): as the sequence (P28702 299-449, further chain) above
CfEcR-DEF mutant M125V, sequence (O77255 entry or part of it M408V): as the sequence (O77255 entry or part of it T335W) above, with W117T, M190V counted along it
CfEcR-DEF mutant M125V, sequence (P28702 299-449, further chain): as the sequence (P28702 299-449, further chain) above

CCCCC(N(NC(=O)c1ccc(CC)cc1)C(=O)c1cc(C)cc(C)c1)C(C)(C)C (centres unmarked) [RG-115840, 3,5-dimethyl-benzoic acid N-(1-tert-butyl-pentyl)-N′-(4-ethyl-benzoyl)-hydrazide]
EC50 (CfEcR-DEF mutant L223Y): 0.58 µM
Emax (CfEcR-DEF mutant L223Y): 142%
EC50 (CfEcR-DEF mutant W238M): 2 µM
Emax (CfEcR-DEF mutant W238M): 41%
EC50 (CfEcR-DEF mutant M125G): 2.97 µM
EC50 (CfEcR-DEF mutant L234W): > 33 µM
Emax (CfEcR-DEF mutant L234W): 6%
EC50 (CfEcR-DEF mutant M125N): 3.3 µM
EC50 (CfEcR-DEF mutant M125V): 3.79 µM
Emax (CfEcR-DEF mutant M125V): 47%
EC50 (CfEcR-DEF mutant F48K): 3.76 µM
Emax (CfEcR-DEF mutant F48K): 18%
EC50 (CfEcR-DEF mutant F48R): 3.58 µM
Emax (CfEcR-DEF mutant F48R): 265%
EC50 (CfEcR-DEF mutant T52Q): 2 µM
Emax (CfEcR-DEF mutant T52Q): 34%
EC50 (CfEcR-DEF mutant T52M): 5 µM
Emax (CfEcR-DEF mutant T52M): 15%
EC50 (CfEcR-DEF mutant L223K): 1 µM
Emax (CfEcR-DEF mutant L223K): 93%
EC50 (CfEcR-DEF mutant M219A): 2.87 µM
Emax (CfEcR-DEF mutant M219A): 60%
EC50 (CfEcR-DEF mutant L223R): 2 µM
Emax (CfEcR-DEF mutant L223R): 25%
EC50 (CfEcR-DEF mutant M125S): 1.4 µM
EC50 (CfEcR-DEF mutant L132E): 1.67 µM
Emax (CfEcR-DEF mutant L132E): 156%
EC50 (CfEcR-DEF mutant M219K): > 33 µM
Emax (CfEcR-DEF mutant M219K): 1%
EC50 (CfEcR-DEF mutant T52W): 4.07 µM
EC50 (CfEcR-DEF mutant W238L): 2 µM
Emax (CfEcR-DEF mutant W238L): 41%
EC50 (CfEcR-DEF mutant T52G): 3.61 µM
Emax (CfEcR-DEF mutant T52G): 23%
EC50 (CfEcR-DEF mutant M219Y): 1 µM
Emax (CfEcR-DEF mutant M219Y): 68%
EC50 (CfEcR-DEF mutant M125I): 3.02 µM
Emax (CfEcR-DEF mutant M125I): 45%
EC50 (CfEcR-DEF mutant M219W): 2.33 µM
Emax (CfEcR-DEF mutant M219W): 39%
EC50 (CfEcR-DEF mutant I51M): 4.13 µM
Emax (CfEcR-DEF mutant I51M): 27%
EC50 (CfEcR-DEF mutant L234R): 20 µM
Emax (CfEcR-DEF mutant L234R): 224%
EC50 (CfEcR-DEF mutant T52R): > 33 µM
Emax (CfEcR-DEF mutant T52R): 2%

CCc1c(C(=O)NN(C(=O)c2cc(OC)c(C)c(OC)c2)C(C=C(C)C(C)(C)C)C(C)(C)C)ccc2c1OCCO2 (centres unmarked) [RG-115898, 3,5-dimethoxy-4-methyl-benzoic acid N-(1-tert-butyl-3,4,4-trimethyl-pent-2-enyl)-N′-(5-ethyl-2,3-dihydro-benzo[1,4]dioxine-6-carbonyl)-hydrazide]
EC50 (CfEcR-DEF mutant L223Y): 0.33 µM
Emax (CfEcR-DEF mutant L223Y): 20%
EC50 (CfEcR-DEF mutant W238M): > 33 µM
Emax (CfEcR-DEF mutant W238M): 3%
EC50 (CfEcR-DEF mutant M125G): 0.08 µM
EC50 (CfEcR-DEF mutant L234W): > 33 µM
Emax (CfEcR-DEF mutant L234W): 2%
EC50 (CfEcR-DEF mutant M125N): 0.94 µM
EC50 (CfEcR-DEF mutant M125V): > 33 µM
Emax (CfEcR-DEF mutant M125V): 1%
EC50 (CfEcR-DEF mutant F48K): > 33 µM
Emax (CfEcR-DEF mutant F48K): 8%
EC50 (CfEcR-DEF mutant F48R): > 33 µM
Emax (CfEcR-DEF mutant F48R): 0%
EC50 (CfEcR-DEF mutant T52Q): 20 µM
Emax (CfEcR-DEF mutant T52Q): 8%
EC50 (CfEcR-DEF mutant T52M): > 33 µM
Emax (CfEcR-DEF mutant T52M): 1%
Emax (CfEcR-DEF mutant L223K): 18%
EC50 (CfEcR-DEF mutant M219A): 1 µM
Emax (CfEcR-DEF mutant M219A): 5%
EC50 (CfEcR-DEF mutant L223R): > 33 µM
Emax (CfEcR-DEF mutant L223R): 1%
EC50 (CfEcR-DEF mutant M125S): 0.33 µM
EC50 (CfEcR-DEF mutant L132E): 2.15 µM
Emax (CfEcR-DEF mutant L132E): 34%
EC50 (CfEcR-DEF mutant M219K): > 33 µM
Emax (CfEcR-DEF mutant M219K): 0%
EC50 (CfEcR-DEF mutant T52W): 0.18 µM
Emax (CfEcR-DEF mutant T52W; NIH3T3, 40 h, read-out: Rel Max FI): 424%
EC50 (CfEcR-DEF mutant W238L): > 33 µM
Emax (CfEcR-DEF mutant W238L): 0%
EC50 (CfEcR-DEF mutant T52G): > 33 µM
Emax (CfEcR-DEF mutant T52G): 1%
EC50 (CfEcR-DEF mutant M219Y): > 33 µM
Emax (CfEcR-DEF mutant M219Y): 1%
EC50 (CfEcR-DEF mutant M125I): > 33 µM
Emax (CfEcR-DEF mutant M125I): 0%
EC50 (CfEcR-DEF mutant M219W): > 33 µM
Emax (CfEcR-DEF mutant M219W): 0%
EC50 (CfEcR-DEF mutant I51M): > 33 µM
Emax (CfEcR-DEF mutant I51M): 2%
EC50 (CfEcR-DEF mutant L234R): > 33 µM
Emax (CfEcR-DEF mutant L234R): 58%
EC50 (CfEcR-DEF mutant T52R): > 33 µM
Emax (CfEcR-DEF mutant T52R): 0%

Reference: patent publication US9163256B2, “Mutant receptors and their use in a nuclear receptor-based inducible gene expression system” (priority 2004, dated 2015)
